{
  "source": "patent US20180110754A1",
  "about": "“CENICRIVIROC FOR THE TREATMENT OF FIBROSIS” (Tobira Therapeutics, Inc., priority 2015, published 2018)",
  "key": {"CCR5": {"biological_target": "CCR5 (Homo sapiens, UniProt P51681)", "sequence (P51681 whole entry)": "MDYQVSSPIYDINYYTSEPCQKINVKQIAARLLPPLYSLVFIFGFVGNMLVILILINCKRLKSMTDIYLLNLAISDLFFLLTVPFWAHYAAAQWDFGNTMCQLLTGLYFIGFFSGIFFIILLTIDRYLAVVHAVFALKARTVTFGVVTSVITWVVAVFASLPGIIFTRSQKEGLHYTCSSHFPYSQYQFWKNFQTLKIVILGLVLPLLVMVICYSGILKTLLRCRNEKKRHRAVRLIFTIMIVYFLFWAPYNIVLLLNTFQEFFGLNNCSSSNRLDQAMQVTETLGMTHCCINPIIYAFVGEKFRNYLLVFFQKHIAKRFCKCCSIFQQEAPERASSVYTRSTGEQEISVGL", "assay": "RANTES-induced CCR5 internalization / CCR5 receptor occupancy in PBMCs (flow cytometry)", "type": "cell-based", "experimental": "The capacity of each drug to inhibit CCR5 or CCR2 internalization was evaluated. Cell-surface expression of CCR5 and CCR2 was assessed by flow cytometry, and fluorescence values were converted into molecules of equivalent soluble fluorescence (MESF)."}, "[1]": {"tested_on": "unilateral ureter occlusion (UUO) renal fibrosis", "assay": "Mouse UUO model of renal fibrosis", "type": "in vivo, CD-1 mice", "experimental": "Test animals were allocated to weight-matched treatment groups on the day prior to the surgical procedure (Day-1). Male CD-1 mice (N=51; age, 7-8 weeks) underwent either sham surgery or total ligation of the right ureter, i.e. UUO, via aseptic laparotomy (FIG. 12). […] Another group received the anti-transforming growth factor TGF-β1 antibody, compound 1D11 (positive control) at 3 mg/kg/day from Days-1 to 4, injected intraperitoneally once daily, and vehicle control from Days 0 to 5. […] On Day 5, animals were anaesthetized, blood and tissues were collected prior to sacrifice.\nStudy endpoints included: a) body and kidney weights; b) fibrosis in obstructed kidney evaluated via histological quantitative image analysis of picrosirius red staining (ten images/depth/kidney obtained and assessed in a blinded fashion using light microscopy [at 200×] to enable sampling of 60-70% of the renal cortical area) and quantified by a composite Collagen Volume Fraction (CVF [% total area imaged]) score expressed as the average positive stain across three anatomically distinct ([…] apart) tissue sections, or depths, from the obstructed kidney; c) hydroxyproline content of frozen renal cortical tissue biopsies as assessed by biochemical analyses; d) mRNA expression of profibrotic and inflammatory biomarkers (including MCP-1, Collagen 1a1, Collagen 3a1, TGF-β1, Fibronectin-1, α-smooth muscle actin (α-SMA) and connective tissue growth factor-1 (CTGF-1); assessed via Luminex® (Life Technologies™, Carlsbad, Calif., USA) assay with relative expression normalised to HPRT (hypoxanthine phosphoribosyltransferase).\nData are expressed as mean±standard error of mean (SEM). Statistical analyses were performed using GraphPad Prism® (GraphPad Software, Inc., San Diego, Calif., USA). Treatment differences between sham-surgery+vehiclecontrol and UUO+vehicle-control groups, and between UUO+vehicle-control and UUO+compound-1D11 (positive control) groups, were analysed by unpaired t-Test. Treatment differences between UUO+vehicle-control and CVC-dose groups were analysed by one-way ANOVA (analysis of variance) with Dunnett's test (post-hoc)."}, "Mouse toxicity studies": {"assay": "Mouse toxicity studies", "type": "in vivo", "conditions": "doses up to 2000 mg/kg/day, no surgical procedures"}, "CCR4": {"biological_target": "CCR4 (Homo sapiens, UniProt P51679)", "sequence (P51679 whole entry)": "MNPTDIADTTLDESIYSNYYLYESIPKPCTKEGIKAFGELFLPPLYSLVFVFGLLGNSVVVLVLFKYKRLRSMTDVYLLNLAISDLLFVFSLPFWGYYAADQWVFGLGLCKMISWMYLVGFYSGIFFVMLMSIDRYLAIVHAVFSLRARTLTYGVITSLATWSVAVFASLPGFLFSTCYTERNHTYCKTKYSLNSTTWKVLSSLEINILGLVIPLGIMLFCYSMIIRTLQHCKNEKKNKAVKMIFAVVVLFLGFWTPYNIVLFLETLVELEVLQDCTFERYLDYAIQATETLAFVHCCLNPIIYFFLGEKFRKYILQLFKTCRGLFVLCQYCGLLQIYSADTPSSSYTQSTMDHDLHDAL", "assay": "Inhibition of ligand binding to CCR4"}, "[2]": {"assay": "Chronic (3- and 9-month) monkey toxicity studies", "type": "in vivo", "conditions": "1000 mg/kg/day"}, "[3]": {"assay": "Phase 1 studies in healthy volunteer subjects", "type": "in vivo, human", "conditions": "single doses up to 800 mg, multiple daily doses up to 200 mg for 10 days", "from_the_text": "The frequency and magnitude of transaminase elevations observed across these studies was consistent with the pattern described for Phase 1 studies in scientific literature. […] In both studies and at all doses CVC presented a favorable adverse event profile. […] No clinically relevant changes in ECG parameters or changes for any vital sign parameters were observed during the 48-week treatment period. No apparent dose or exposure relationship for adverse events, laboratory abnormalities (including CPK, ALT, AST and bilirubin elevations) or dose-limiting toxicities were observed."}, "[4]": {"tested_on": "CC14-induced acute liver injury", "assay": "CC14-induced acute liver injury in mice", "type": "in vivo, C57BL/6J mice", "conditions": "CVC 100 mg/kg oral, 36h after CC14; vehicle 5.49%±0.49", "experimental": "Liver injury and immune cell phenotypes were analyzed. For mechanistic studies, monocyte-derived macrophage subsets and resident macrophages (Kupffer cells) were sorted by FACS from injured livers and subjected to array-based Nanostring gene expression analysis."}, "mouse monocytes": {"tested_on": "mouse monocytes", "assay": "CCL2-induced chemotaxis ex vivo on mouse monocytes", "type": "cell-based", "experimental": "Monocyte/macrophage recruitment was assessed in vivo in a mouse model of thioglycollate-induced peritonitis. CCL2-induced chemotaxis was evaluated ex vivo on mouse monocytes. […] Study assessments included body and liver/kidney weight, liver function test, liver/kidney morphology and collagen deposition, fibrogenic gene and protein expression, and pharmacokinetic analyses."}},
  "data": [
    {"smiles": "CCCCOCCOc1ccc(-c2ccc3c(c2)/C=C(/C(=O)Nc2ccc([S@@+]([O-])Cc4cncn4CCC)cc2)CCCN3CC(C)C)cc1", "note": "[CVC, (S)-8-[4-(2-Butoxyethoxy)phenyl]-1-isobutyl-N-(4-{[(1-propyl-1H-imidazol-5-yl)methyl]sulfinyl}phenyl)-1,2,3,4-tetrahydro-1-benzazocine-5-carboxamide]", "values": [
      {"measurement": "receptor occupancy at […]", "setting": "CCR5; CCR5, […] nM for CD4+ and 2.3 nM for CD8+ T-cells, ex vivo in humans", "value": "≥ 90", "unit": "%"},
      {"measurement": "CCR5 receptor occupancy at saturation", "setting": "CCR5; CD4+ T cells", "value": "~91", "unit": "%"},
      {"measurement": "Effective concentration at which saturation of CCR5 was reached", "setting": "CCR5; CD4+ T cells", "value": 3.1, "unit": "nM"},
      {"measurement": "CCR5 receptor occupancy at saturation", "setting": "CCR5; CD8+ T cells", "value": "~90", "unit": "%"},
      {"measurement": "Effective concentration at which saturation of CCR5 was reached", "setting": "CCR5; CD8+ T cells", "value": 2.3, "unit": "nM"},
      {"measurement": "Cell-surface expression of CCR5", "setting": "CCR5; in the absence of RANTES", "value": "increased cell-surface expression of CCR5"},
      {"measurement": "Effect on body weight", "setting": "[1]; CVC 7 mg/kg/day, Day 5", "value": "no effect on body weight"},
      {"measurement": "Outcome of the 100 mg/kg/day group", "setting": "[1]; CVC 100 mg/kg/day, N=9, after UUO surgery", "value": "terminated early due to moribundity"},
      {"measurement": "Effect on UUO-induced increase in obstructed kidney hydroxyproline content", "setting": "[1]; CVC 7 and 20 mg/kg/day", "value": "Neither dose of CVC tested affected UUO-induced increases"},
      {"measurement": "Effect on UUO-induced Collagen 1a1, Collagen 3a1, TGF-β1 and Fibronectin-1 mRNA expression", "setting": "[1]; obstructed kidney cortex", "value": "did not reach statistical significance"},
      {"measurement": "Effect on UUO-induced MCP-1, α-SMA and CTGF-1 mRNA expression", "setting": "[1]; obstructed kidney cortex", "value": "did not have significant effects"},
      {"measurement": "Tolerability", "setting": "Mouse toxicity studies", "value": "well tolerated"},
      {"measurement": "Inhibition of ligand binding to CCR4", "setting": "CCR4", "value": "only weakly inhibited"},
      {"measurement": "Inflammation in clinical pathology parameters or any tissue incl. liver (microscopic evaluation)", "setting": "[2]", "value": "No indication of inflammation"},
      {"measurement": "Plasma MCP-1 levels over controls", "setting": "[2]; 3- and 9-month studies", "value": "~5", "unit": "fold"},
      {"measurement": "Tolerability", "setting": "[3]", "value": "generally well tolerated"},
      {"measurement": "Ly6C+ monocyte-derived macrophages in liver (% of liver leukocytes)", "setting": "[4]", "value": "0.95%±0.14"},
      {"measurement": "Monocyte migration ex vivo (CCL2-induced chemotaxis)", "setting": "mouse monocytes", "value": "reduced"}
    ]}
  ]
}
